# Measured values as given in US9658212B2, “Process for evaluating active agent(s) capable of preserving the functionality of epithelial stem cells” (L'OREAL, priority 2012, dated 2017).
# Entries after “also recorded” stand apart in the source; their conditions may differ.
# What was measured:
# [1] = test system: gene encoding carbonic anhydrase IX; assay: Transcriptomic analysis (RT-qPCR) of the carbonic anhydrase IX gene in hair bulbs cultured ex vivo; assay type: cell-based, human; settings: whole hair bulbs, 4 hours incubation, normoxic conditions (21% dioxygen), compared with hypoxic conditions (3% dioxygen)
# From the text: A second evaluation process may consist in carrying out a transcriptomic analysis of carbonic anhydrase IX, of which the expression of the corresponding gene is modified by a hypoxic signal, using the RT-qPCR technique, on keratin materials, for example on in vitro cultures of keratinocytes or hair bulbs isolated by microdissection and placed in culture ex vivo, under hypoxic conditions, and under normoxic conditions in the presence or absence of said active agent(s) to be tested, in order to study whether the active agent(s) is (are) capable of mimicking a hypoxic state.
# This second process consists in carrying out a transcriptomic analysis of the gene encoding carbonic anhydrase IX, the expression of which is modified by a hypoxic signal, using the RT-qPCR technique, on hair bulbs isolated by microdissection at the level of the human scalp hypodermis and placed in culture ex vivo for 4 hours either under hypoxic conditions (3% dioxygen) or at 21% dioxygen, in the absence (control) or in the presence of diethyl pyridine-2,4 dicarboxylate.
# [2] = test system: keratinocytes from the outer sheath of human hair follicles; assay: CFE (Colony-forming efficiency) test for keratinocytes (including epithelial stem cells); assay type: cell-based; settings: 21% dioxygen, 50 to 500 μM, 10 days culture
# From the text: It is possible to optionally add to these two evaluation processes a process aimed at establishing the impact of the active agent(s) capable of mimicking hypoxia on the quality of the epithelial stem cells. To do this, a CFE (Colony-forming efficiency) test can be carried out for keratinocytes (including epithelial stem cells), consisting in observing, respectively, under hypoxic conditions and under normoxic conditions in the presence or absence of active agent(s), the impact of the presence of the active agent(s) on the frequency of the cells capable of generating a cell clone within a given population, and also on the clonal morphology obtained, so as to thus establish their participation in the preservation of the functionality of the epithelial stem cells treated with the active agent(s). […]
# Next, the cells of the outer epithelial sheath thus extracted from the hair follicles and dissected are subsequently seeded in a proportion of 1000 cells/culture dish under CFE conditions, on a layer of irradiated 3T3 fibroblasts. […] At the end of the clonogenic culture and after fixing (via 70% ethanol) and staining (incubation with eosin, rinsing and then incubation with BlueRAL 555) of the cell clones obtained, the morphology of the clones and of the cells making up these clones is analyzed.
# [3] = test system: HIF1-alpha protein; assay: Western blotting of the level of expression/stabilization of the HIF1-alpha protein in outer sheath keratinocytes; assay type: cell-based, human; settings: keratinocyte cultures under normoxic conditions (21% oxygen)
# From the text: This third example consists in carrying out an analysis of the level of expression/stabilization of the HIF1-alpha protein using the Western blotting technique as a basis. To summarise, under normoxic conditions, the HIF1-alpha protein is hydroxylated on a proline residue (reaction catalyzed by a prolyl hydroxylase), ubiquitinylated and then degraded by the proteasome. Under hypoxic conditions, the HIF1-alpha protein is not hydroxylated and its expression level is maintained. To characterize the effect of diethyl pyridine-2,4-dicarboxylate on the level of expression/stabilization of HIF1-alpha, a protein extract was prepared on cultures of keratinocytes derived from the outer sheath of human hair follicles maintained and placed in culture under hypoxic conditions or under normoxic conditions, in the absence or presence of diethyl pyridine-2,4-dicarboxylate. […] In this regard, it may be stated that the effect of diethyl pyridine-2,4-dicarboxylate under normoxic conditions mimics the effect of hypoxic conditions on the expression/stabilization of the HIF1-alpha protein.
compound,measurement,setting,value
"CCOC(=O)c1ccnc(C(=O)OCC)c1 [diethyl pyridine-2,4-dicarboxylate]",expression of carbonic anhydrase 9 (molecular profile),[1],induces a molecular profile similar to that induced by hypoxia
same,number of clones,[2]; vs 21% dioxygen control conditions,does not significantly decrease
same,clonal morphology,[2]; vs untreated 21% dioxygen control,less diffuse and less dense than the controls; also recorded: generates clones similar to those obtained under hypoxic conditions
same,level of expression/stabilization of the HIF1-alpha protein,[3],induces an increase in the amount of protein detected
